The values that follow come from patent US10399932B2, “Inhibitors of indoleamine-2,3-dioxygenase for the treatment of cancer” (BRISTOL-MYERS SQUIBB COMPANY, priority 2015, dated 2019).

The target of this experiment is human IDO1 (Homo sapiens, UniProt P14902). Put plainly: Assessment of human IDO-1 inhibitory activity in Hela cells (Interferon-gamma activated, Ehrlich reagent, absorbance at 490 nm). Set-up: endogenous in cells; host or cells: HeLa cells stimulated with interferon-gamma. Conditions: 18 hours. Type of experiment: cell-based. How it is done: Exemplary compounds were tested for inhibition of IDO activity.
Sequence of human IDO1 (P14902 whole entry): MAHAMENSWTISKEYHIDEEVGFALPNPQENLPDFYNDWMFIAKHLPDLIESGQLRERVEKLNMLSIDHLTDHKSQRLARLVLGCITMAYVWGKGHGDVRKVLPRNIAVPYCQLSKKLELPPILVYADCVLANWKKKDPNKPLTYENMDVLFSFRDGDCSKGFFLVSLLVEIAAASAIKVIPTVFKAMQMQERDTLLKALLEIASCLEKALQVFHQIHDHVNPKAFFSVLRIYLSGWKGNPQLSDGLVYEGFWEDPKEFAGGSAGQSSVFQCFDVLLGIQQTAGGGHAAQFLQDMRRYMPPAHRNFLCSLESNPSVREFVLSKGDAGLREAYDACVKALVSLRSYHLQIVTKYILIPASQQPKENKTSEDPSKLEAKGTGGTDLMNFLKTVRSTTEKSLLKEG
HeLa cells were seeded at 20,000 cells per 30 µL per well with RPMI/phenol red free media containing 10% FBS in a 384-well tissue culture plate (black with clear bottoms). 50 nL of compound was added to cells and incubated at 37° C. for one hour. 20 μL of the recombinant human Interferon-gamma (R&D System, Cat. #285-IF, at final concentration of 10 ng/ml) or recombinant murine Interferon-gamma (PEPROTECH® Inc., Cat. #315-05, final concentration of 5 ng/ml) was added to activate IDO signaling. The cells were incubated for 18 hours in 37° C. incubator with 5% CO2.
Compound treatment was stopped by adding 5 μl trichloroacetic acid to a final concentration of 3%. Subsequently, the cell plate was further incubated at 50° C. for 30 minute. An equal volume supernatant (20 μL) and 2% (w/v) Ehrlich reagent (4-dimethylaminobenzaldehyde) in glacial acetic acid were mixed in a new clear bottom 384-well plate. This plate was incubated at room temperature for 30 minutes. Absorbance at 490 nm was measured on Envision plate reader.
Compound IC50 values were calculated using counts from unstimulated (no INF-gamma treatment) wells as 100% inhibition. INF-gamma treatment without compound treatment as 0% inhibition.
The IC50 is the concentration that inhibits the measured activity by half. Low values mean inhibition by little substance, high ones a need for much substance. `CCN(c1ccc([C@H](COC)CC(=O)O)cc1Nc1ncc(F)cc1F)C1CCOCC1` (single isomer, unassigned) [Example 395] showed a concentration for half-maximal inhibition (IC50) of over 50 nM.
Under `CCN(c1ccc([C@H](COC)CC(=O)O)cc1Nc1ccc(C)cc1)C1CCOCC1` (single isomer, unassigned) [Example 410] stands under 50 nM.
Compound `CCN(c1ccc([C@H](COC)CC(=O)O)cc1Nc1ccc(Cl)cc1)C1CCOCC1` (single isomer, unassigned) [Example 413] gave an IC50 of under 5 nM.
`CCN(c1ccc(C(COC)CC(=O)O)cc1NC(=O)Nc1ccc(C#N)cc1)C1CCOCC1` (single isomer, unassigned) [Example 422 E2] gave an IC50 of over 50 nM.
Take `CC[C@@H](CC(=O)O)c1ccc(N(CC)C2CCOCC2)c(Nc2ccc(Cl)cn2)c1` (single isomer, unassigned) [Example 460]: the half-inhibitory concentration (IC50) is under 5 nM.
In turn, `CC[C@H](CC(=O)O)c1ccc(N(CC)C2CCOCC2)c(Nc2ccc(C#N)cn2)c1` (single isomer, unassigned) [Example 504] gave an IC50 of under 5 nM.
For the compound `CCCN(c1ccc([C@@H](COC)CC(=O)O)cc1Nc1cnc(OCC2CC2)nc1)C1CCOCC1` (single isomer, unassigned) [Example 543], the IC50 was under 5 nM.
The compound `CCCOc1ncc(Nc2cc(C(C)CC(=O)O)ccc2N(CC)C2CCOCC2)cn1` (single isomer, unassigned) [Example 634, 3-(4-(ethyl(tetrahydro-2H-pyran-4-yl)amino)-3-((2-propoxypyrimidin-5-yl)amino)phenyl)butanoic acid] registered an IC50 of under 50 nM.
In turn, `CCN(c1ccc(C(C)CC(=O)O)cc1Nc1cnc(OC(C)C)nc1)C1CCOCC1` (single isomer, unassigned) [Example 635, 3-(4-(ethyl(tetrahydro-2H-pyran-4-yl)amino)-3-((2-isopropoxypyrimidin-5-yl)amino)phenyl)butanoic acid] registered an IC50 of over 50 nM.
Take `CCOc1ncc(Nc2cc(C(CC)CC(=O)O)ccc2N2CCN(C(=O)OC)CC2)cn1` (single isomer, unassigned) [Example 670, 3-(3-((2-Ethoxypyrimidin-5-yl)amino)-4-(4-(methoxycarbonyl)piperazin-1-yl)phenyl)pentanoic acid]: the half-inhibitory concentration (IC50) was over 50 nM.
Take `CCOc1ncc(Nc2cc(C(CC)CC(=O)O)ccc2N2CCNCC2)cn1` (single isomer, unassigned) [Example 673]: the concentration for half-maximal inhibition (IC50) is over 50 nM.
Compound `CC(CC(=O)O)c1ccc(N2C[C@@H](C)O[C@@H](C)C2)c(NC(=O)Nc2ccc(C#N)cc2)c1` (single isomer, unassigned) [Example 752] came in with an IC50 of over 50 nM.
The value for `Cc1ccc(NC(=O)Nc2cc(C(C)CC(=O)O)ccc2N2C[C@@H](C)O[C@@H](C)C2)cc1` (single isomer, unassigned) [Example 753] was over 50 nM.
In turn, `CCN(c1cc(F)c([C@@H](COC)CC(=O)O)cc1Nc1ccc(Cl)cc1)C1CCOCC1` (single isomer, unassigned) [Example 844, 3-(5-((4-Chlorophenyl)amino)-4-(ethyl(tetrahydro-2H-pyran-4-yl)amino)-2-fluorophenyl)-4-methoxybutanoic acid] registered a concentration for half-maximal inhibition (IC50) of under 5 nM.
`CCC(CC(=O)O)c1cc(Nc2ccc(Cl)cc2)c(N(CC)C2CCOCC2)cc1F` (single isomer, unassigned) [Example 861, 3-(5-((4-Chlorophenyl)amino)-4-(ethyl(tetrahydro-2H-pyran-4-yl)amino)-2-fluorophenyl)pentanoic acid] registered an IC50 of under 5 nM.
As to `CCC(CC(=O)O)c1cc(Nc2cnc(OCC3CC3)nc2)c(N(CC)C2CCOCC2)cc1F` (single isomer, unassigned) [Example 863, 3-(5-((2-(cyclopropylmethoxy)pyrimidin-5-yl)amino)-4-(ethyl(tetrahydro-2H-pyran-4-yl)amino)-2-fluorophenyl) pentanoic acid], the IC50 was under 5 nM.
Turning to `CCC(CC(=O)O)c1cc(Nc2cnc(OC)nc2)c(N(CC)C2CCOCC2)cc1F` (single isomer, unassigned) [Example 864, 3-(4-(ethyl(tetrahydro-2H-pyran-4-yl)amino)-2-fluoro-5-((2-methoxypyrimidin-5-yl)amino)phenyl)pentanoic acid], the half-maximal inhibitory concentration (IC50) was under 5 nM.
In the case of `CCOc1ncc(Nc2cc(C(CC)CC(=O)O)c(F)cc2N(CC)C2CCOCC2)cn1` (single isomer, unassigned) [Example 865, 3-(5-((2-ethoxypyrimidin-5-yl)amino)-4-(ethyl (tetrahydro-2H-pyran-4-yl)amino)-2-fluorophenyl) pentanoic acid], the IC50 is under 5 nM.
Under `CCOc1ncc(Nc2cc(C(CC)CC(=O)O)ccc2N(C)C2CCOCC2)cn1` (single isomer, unassigned) [Example 872, 3-(3-((2-ethoxypyrimidin-5-yl)amino)-4-(methyl (tetrahydro-2H-pyran-4-yl)amino)phenyl)pentanoic acid] stands under 50 nM; under `COCC(CC(=O)O)c1ccc(N(C)C2CCOCC2)c(Nc2ccc(C#N)cc2)c1` (single isomer, unassigned) [Example 880, 3-(3-((4-Cyanophenyl)amino)-4-(methyl(tetrahydro-2H-pyran-4-yl)amino)phenyl)-4-methoxybutanoic acid], under 50 nM.
Under `COCC(CC(=O)O)c1ccc(N(C)C2CCOCC2)c(Nc2ccc(C#N)c(F)c2)c1` (single isomer, unassigned) [Example 882, 3-(3-((4-cyano-3-fluorophenyl)amino)-4-(methyl(tetrahydro-2H-pyran-4-yl)amino)phenyl)-4-methoxybutanoic acid] stands under 50 nM.
Under `COCC(CC(=O)O)c1ccc(N(C)C2CCOCC2)c(Nc2ccc(C#N)cc2F)c1` (single isomer, unassigned) [Example 883, 3-(3-((4-cyano-2-fluorophenyl)amino)-4-(methyl(tetrahydro-2H-pyran-4-yl)amino)phenyl)-4-methoxybutanoic acid] stands under 50 nM.
For the compound `CCOc1ncc(Nc2cc(C(COC)CC(=O)O)ccc2N(C)C2CCOCC2)cn1` (single isomer, unassigned) [Example 885, 3-(3-((2-ethoxypyrimidin-5-yl)amino)-4-(methyl (tetrahydro-2H-pyran-4-yl)amino)phenyl)-4-methoxybutanoic acid], the IC50 is over 50 nM.
Under `COCC(CC(=O)O)c1ccc(N2CCOC[C@H]2C(C)C)c(NC(=O)Nc2ccc(C#N)cc2)c1` (single isomer, unassigned) [Example 915] stands over 50 nM.
Compound `CCN(c1c(F)cc(C(COC)CC(=O)O)cc1NC(=O)Nc1ccc(Cl)cc1F)C1CCOCC1` (single isomer, unassigned) [Example 917, 3-(3-(3-(4-Chloro-2-fluorophenyl)ureido)-4-(ethyl(tetrahydro-2H-pyran-4-yl)amino)-5-fluorophenyl)-4-methoxybutanoic acid] displayed a concentration for half-maximal inhibition (IC50) of over 50 nM.
Compound `COCC(CC(=O)O)c1cc(F)c(N(CC(C)C)CC(C)C)c(Nc2ccc(Cl)cc2)c1` (single isomer, unassigned) [Example 921, 3-(3-((4-Chlorophenyl)amino)-4-(diisobutylamino)-5-fluorophenyl)-4-methoxybutanoic acid] registered a concentration for half-maximal inhibition (IC50) of under 5 nM.
For `CCc1ccc(Nc2cc(C(COC)CC(=O)O)cc(F)c2N(CC(C)C)CC(C)C)cc1` (single isomer, unassigned) [Example 926, 3-(4-(diisobutylamino)-3-((4-ethylphenyl)amino)-5-fluorophenyl)-4-methoxybutanoic acid.], the 50% inhibitory concentration (IC50) is under 50 nM.
The value for `COCC(CC(=O)O)c1ccc(NC2CCOCC2)c(Nc2ccc(C#N)cc2)c1` (single isomer, unassigned) [Example 928 E2, 3-(3-((4-Cyanophenyl)amino)-4-((tetrahydro-2H-pyran-4-yl)amino)phenyl)-4-methoxybutanoic acid] was over 50 nM.
Under `CCOc1ncc(Nc2cc(C(COC)CC(=O)O)ccc2N2CCOC[C@@H]2C(C)C)cn1` (single isomer, unassigned) [Example 935] stands over 50 nM.
`COCC(CC(=O)O)c1ccc(N2CCOC[C@@H]2C(C)C)c(NC(=O)Nc2ccc(C#N)cc2)c1` (single isomer, unassigned) [Example 936] came in with a concentration for half-maximal inhibition (IC50) of over 50 nM.
The compound `CCC(CC(=O)O)c1ccc(N(C)C2CCOCC2)c(Nc2ccc(Cl)cc2)c1` (single isomer, unassigned) [Example 937, 3-(3-((4-chlorophenyl)amino)-4-(methyl(tetrahydro-2H-pyran-4-yl)amino)phenyl) pentanoic acid] registered an IC50 of under 5 nM.
In turn, `CCOc1ncc(Nc2cc(C(COC)CC(=O)O)ccc2N2CCOC[C@H]2C(C)C)cn1` (single isomer, unassigned) [Example 938] registered an IC50 of over 50 nM.
For the compound `CCC(CC(=O)O)c1ccc(N(CC)C2CCN(Cc3ccccc3)CC2)c(Nc2ccc(C#N)cc2)c1` (single isomer, unassigned) [Example 943, 3-(4-((1-benzylpiperidin-4-yl)(ethyl)amino)-3-((4-cyanophenyl)amino)phenyl) pentanoic acid], the IC50 is under 5 nM.
For the compound `CCOc1ncc(Nc2cc(C(CC)CC(=O)O)ccc2N(CC)C2CCOC2)cn1` (single isomer, unassigned) [Example 945 D2, 3-(3-((2-Ethoxypyrimidin-5-yl)amino)-4-(ethyl (tetrahydrofuran-3-yl)amino)phenyl)pentanoic acid], the IC50 is under 50 nM.
